Test results reported in US20220064196A1, “EGFR Inhibitors, Compositions and Methods Thereof” (Betta Pharmaceuticals Co., Ltd., priority 2019, published 2022).
Like-named read-outs stand apart in the source and are kept apart here.

What was measured:
EGFR L858R/T790M/C797S = EGFR L858R/T790M/C797S (Homo sapiens, UniProt P00533, C797S/L858R/T790M); experiment: Kinase assay (mobility shift), EGFR L858R/T790M/C797S; assay type: biochemical
Experimental: [Worded in the source for another variant; this variant is reported under the same test.] (§1) Test 1 Kinase Assay for EGFR Del19/T790M/C797S and EGFR Wildtype
(§2) Enzyme reaction protocol are as follows:
(§3) 1. Preparing 1* Kinase buffer as followed.
(§4) 2. Preparing Compound Concentration Gradient: Compounds were tested at a concentration of 300 nM, diluted to 100-fold final concentration in 100% DMSO solution in 96-well plates, and compounds were diluted 3 times with Precision, 10 concentrations. Each concentration of the compound was then further diluted to a 5-fold final concentration of the intermediate dilution solution using 1* Kinase buffer.
(§5) 3.5 μL of each of the prepared intermediate dilution compounds was separately added to the compound wells of the 384-well plate, and each concentration was tested for duplicate wells; 5 μL of 5% DMSO was added to the negative control wells and the positive control wells, respectively.
(§6) 4. 2.5-fold final concentration of the kinase solution was prepared using 1*Kinase buffer.
(§7) 5. Add 10 μL of 2.5-fold final concentration of kinase solution to the compound well and positive control well; add 10 μL of 1*Kinase buffer to the negative control well.
(§8) 6. Centrifuge at 1000 rpm for 30 seconds, shake the reaction plate and incubate for 10 minutes at room temperature.
(§9) 7. A mixed solution of 2.5 times the final concentration of ATP and Kinase substrate (5-FAM-EEPLYWSFPAKKK-CONH2) was prepared using 1*Kinase buffer.
(§10) 8. 10 μL of a 2.5-fold final concentration of a mixed solution of ATP and a substrate was added to initiate the reaction.
(§11) 9. Centrifuge the 384-well plate at 1000 rpm for 30 seconds, mix by shaking, and incubate at room temperature for the corresponding time.
(§12) 10. Add 30 μL of the stop solution to stop the kinase reaction, centrifuge at 1000 rpm for 30 seconds, and mix by shaking.
(§13) 11. Read the conversion rate with Caliper EZ Reader.
(§14) Convert conversion values to inhibition values:
(§15) Percent inhibition 32 (max-conversion)/(max-min)*100.
(§16) “max” stands for the mean value of the positive control well ratio; “min” stands for the mean value of the negative control well.
(§17) Fit the data in log(inhibitor) vs. response Variable slope of GraphPad Prism 5 to obtain IC50 values.
(§18) Equation used is: Y=Bottom+(Top-Bottom)/(1+(IC50/X)^HillSlope)

Ba/F3-Del19/T790M/C797S = Ba/F3-Del19/T790M/C797S (Homo sapiens, UniProt P00533, T790M/C797S, cells depend on it, form not given); experiment: Ba/F3-Del19/T790M/C797S cells proliferation assay (CellTiter Glo); assay type: cell-based; settings: cell proliferation, 72 h, read-out: Ba/F3-Del19/T790M/C797S IC50
Chain of Ba/F3-Del19/T790M/C797S (P00533 with tags, fused parts or gaps DEL746-750/T790M/C797S, form open): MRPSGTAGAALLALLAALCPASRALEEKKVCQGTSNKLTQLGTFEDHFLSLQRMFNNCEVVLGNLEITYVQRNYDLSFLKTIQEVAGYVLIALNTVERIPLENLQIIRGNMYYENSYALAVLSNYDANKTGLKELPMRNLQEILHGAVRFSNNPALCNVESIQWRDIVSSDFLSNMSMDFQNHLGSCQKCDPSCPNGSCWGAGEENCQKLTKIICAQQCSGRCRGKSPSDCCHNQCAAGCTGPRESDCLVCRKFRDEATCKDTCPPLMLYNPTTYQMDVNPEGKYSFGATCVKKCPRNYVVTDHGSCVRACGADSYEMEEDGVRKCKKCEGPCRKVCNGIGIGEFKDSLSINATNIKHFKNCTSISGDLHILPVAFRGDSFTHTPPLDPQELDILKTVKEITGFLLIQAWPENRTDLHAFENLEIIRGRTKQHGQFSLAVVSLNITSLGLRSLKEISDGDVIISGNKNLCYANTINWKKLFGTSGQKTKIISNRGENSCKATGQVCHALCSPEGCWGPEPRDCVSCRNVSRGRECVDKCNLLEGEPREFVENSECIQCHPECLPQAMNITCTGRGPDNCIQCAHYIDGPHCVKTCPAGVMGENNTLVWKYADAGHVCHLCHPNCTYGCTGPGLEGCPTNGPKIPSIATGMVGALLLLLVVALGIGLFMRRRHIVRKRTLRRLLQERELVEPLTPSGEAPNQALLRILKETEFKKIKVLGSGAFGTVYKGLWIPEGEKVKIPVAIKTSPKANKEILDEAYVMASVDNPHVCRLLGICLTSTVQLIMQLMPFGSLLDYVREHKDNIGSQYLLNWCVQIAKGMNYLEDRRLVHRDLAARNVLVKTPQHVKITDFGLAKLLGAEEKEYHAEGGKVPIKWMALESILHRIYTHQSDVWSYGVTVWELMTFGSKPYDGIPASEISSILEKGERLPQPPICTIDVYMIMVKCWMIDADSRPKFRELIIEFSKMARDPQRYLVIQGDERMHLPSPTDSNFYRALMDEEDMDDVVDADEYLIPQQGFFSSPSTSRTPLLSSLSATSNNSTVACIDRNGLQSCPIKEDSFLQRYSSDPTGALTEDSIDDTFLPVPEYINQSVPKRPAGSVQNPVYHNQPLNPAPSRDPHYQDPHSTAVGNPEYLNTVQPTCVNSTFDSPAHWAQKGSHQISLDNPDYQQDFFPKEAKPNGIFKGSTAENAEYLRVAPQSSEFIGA
Experimental: (§19) a) The medium was preheated in a 37°0 C. water bath in advance.
(§20) b) Remove the cryogenic vials from the liquid nitrogen tank, quickly put it into a 37° C. water bath, and completely melt it in 1 min.
(§21) c) Transfer the cell suspension to a 15 mL centrifuge tube containing 8 mL medium, centrifuge 1000 rpm, 5 min.
(§22) d) Discard the supernatant, resuspend the cells in 1 mL medium, and transfer to a 75 cm^2 flask containing 15 mL medium, culture the cells in an incubator at 37° C., 5% CO2.
(§23) a) The medium was preheated in a 37° C. water bath in advance.
(§24) b) Collect cell to a 15 mL centrifuged tube, centrifuge at 1000 rpm for 5 min. Discard the supernatant, count, and make the cell density at 1×10^4 cells/mL, then place it in a 37° C., 5% CO2 incubator.
(§25) a) The test compound (20 mM stock solution) was diluted to 200uM with 100% DMSO as starting concentration then 3-fold serial diluted with “9+0” concentrations. in a 96-well dilution plate (Cat # P-05525, Labcyte);
(§26) b) The above compound solution was diluted 1:20 times with culture medium to prepare a 10 fold working solution;
(§27) a) Take cells in log phase growth, centrifuge at 1000 rpm for 5 min, then resuspend the cells with culture medium, then count cells;
(§28) b) Cells were seeded to 96-well cell culture plate with density at 2000 cells/well;
(§29) a) Compounds prepared at step 2 were added to cell plate with 15 μL per well, the final concentrations were 1000,333, 111.1, 37,12.3, 4.1, 1.4, 0.5, 0.2 and 0 nM, and the final concentration of DMSO was 0.5%. The blank control well was a culture medium (0.5% DMSO);
(§30) b) The cells were incubated for an additional 72 h in the incubator.
(§31) a) Remove the 96-well cell culture plate and add 50 μl of CTG reagent (CellTiter Glo kit, promega, Cat # G7573).
(§32) b) Plate was shaked for 2 min and then let it cool for 10 min at room temperature.
(§33) c) The Luminescence signal value was read using a PerkinElmer reader. Experimental data analysis
(§34) Data were analyzed using GraphPad Prism 6.0 software to obtain a fitted curve of compound activity.
(§35) Fit the Compound IC50 from non-linear regression equation:
(§36) Y=Bottom+(Top-Bottom)/(1+10((LogIC50-X)×Hill Slope));
(§37) X: The log of the concentration of the compound; Y: Luminescence value.
(§38) The cells proliferation assay results are expressed with IC50, shown as Table 2.

Ba/F3-L858R/T790M/C797S = Ba/F3-L858R/T790M/C797S (Homo sapiens, UniProt P00533, T790M/C797S/L858R, cells depend on it); experiment: Ba/F3-L858R/T790M/C797S cells proliferation assay (CellTiter Glo); assay type: cell-based; settings: cell proliferation, 72 h, read-out: Ba/F3-L858R/T790M/C797S IC50
Chain of Ba/F3-L858R/T790M/C797S (P00533 whole entry T790M/C797S/L858R): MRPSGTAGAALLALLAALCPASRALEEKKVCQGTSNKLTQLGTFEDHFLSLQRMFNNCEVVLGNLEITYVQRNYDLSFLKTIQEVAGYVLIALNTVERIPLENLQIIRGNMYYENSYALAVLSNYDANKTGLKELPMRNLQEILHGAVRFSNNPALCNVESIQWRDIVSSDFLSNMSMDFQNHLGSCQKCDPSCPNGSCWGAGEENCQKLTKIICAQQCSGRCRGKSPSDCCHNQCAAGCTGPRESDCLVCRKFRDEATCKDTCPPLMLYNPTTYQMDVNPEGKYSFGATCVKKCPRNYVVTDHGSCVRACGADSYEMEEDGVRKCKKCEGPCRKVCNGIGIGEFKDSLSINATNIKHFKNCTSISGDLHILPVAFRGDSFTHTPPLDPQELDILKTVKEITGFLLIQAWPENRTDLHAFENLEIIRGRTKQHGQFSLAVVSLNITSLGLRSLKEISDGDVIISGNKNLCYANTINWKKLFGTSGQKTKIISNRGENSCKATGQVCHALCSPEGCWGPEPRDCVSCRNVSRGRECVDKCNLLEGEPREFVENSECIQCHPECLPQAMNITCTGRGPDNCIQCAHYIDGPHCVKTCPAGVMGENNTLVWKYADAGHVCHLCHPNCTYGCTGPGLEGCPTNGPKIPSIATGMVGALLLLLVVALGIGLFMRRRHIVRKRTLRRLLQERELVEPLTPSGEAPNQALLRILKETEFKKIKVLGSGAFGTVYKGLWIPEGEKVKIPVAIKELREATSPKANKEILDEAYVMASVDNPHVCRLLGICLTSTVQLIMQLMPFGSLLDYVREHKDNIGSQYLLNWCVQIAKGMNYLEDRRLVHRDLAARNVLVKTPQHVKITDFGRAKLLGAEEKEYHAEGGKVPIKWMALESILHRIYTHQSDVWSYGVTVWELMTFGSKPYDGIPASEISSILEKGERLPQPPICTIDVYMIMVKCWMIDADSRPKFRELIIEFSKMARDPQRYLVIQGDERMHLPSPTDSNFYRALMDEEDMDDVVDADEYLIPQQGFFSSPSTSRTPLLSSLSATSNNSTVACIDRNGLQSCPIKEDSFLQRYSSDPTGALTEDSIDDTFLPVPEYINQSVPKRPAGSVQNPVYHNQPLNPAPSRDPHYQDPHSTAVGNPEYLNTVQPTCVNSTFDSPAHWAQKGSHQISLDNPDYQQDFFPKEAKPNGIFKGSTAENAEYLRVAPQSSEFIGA
Experimental: as §19, §20, §21, §22, §23, §24, §25, §26, §27, §28, §29, §30, §31, §32, §33, §34, §35, §36, §37, §38

EGFR WT = EGFR WT (Homo sapiens, UniProt P00533); experiment: Kinase assay (mobility shift), EGFR wildtype; assay type: biochemical; settings: top concentration 300 nM
Chain of EGFR WT (P00533 25-1210): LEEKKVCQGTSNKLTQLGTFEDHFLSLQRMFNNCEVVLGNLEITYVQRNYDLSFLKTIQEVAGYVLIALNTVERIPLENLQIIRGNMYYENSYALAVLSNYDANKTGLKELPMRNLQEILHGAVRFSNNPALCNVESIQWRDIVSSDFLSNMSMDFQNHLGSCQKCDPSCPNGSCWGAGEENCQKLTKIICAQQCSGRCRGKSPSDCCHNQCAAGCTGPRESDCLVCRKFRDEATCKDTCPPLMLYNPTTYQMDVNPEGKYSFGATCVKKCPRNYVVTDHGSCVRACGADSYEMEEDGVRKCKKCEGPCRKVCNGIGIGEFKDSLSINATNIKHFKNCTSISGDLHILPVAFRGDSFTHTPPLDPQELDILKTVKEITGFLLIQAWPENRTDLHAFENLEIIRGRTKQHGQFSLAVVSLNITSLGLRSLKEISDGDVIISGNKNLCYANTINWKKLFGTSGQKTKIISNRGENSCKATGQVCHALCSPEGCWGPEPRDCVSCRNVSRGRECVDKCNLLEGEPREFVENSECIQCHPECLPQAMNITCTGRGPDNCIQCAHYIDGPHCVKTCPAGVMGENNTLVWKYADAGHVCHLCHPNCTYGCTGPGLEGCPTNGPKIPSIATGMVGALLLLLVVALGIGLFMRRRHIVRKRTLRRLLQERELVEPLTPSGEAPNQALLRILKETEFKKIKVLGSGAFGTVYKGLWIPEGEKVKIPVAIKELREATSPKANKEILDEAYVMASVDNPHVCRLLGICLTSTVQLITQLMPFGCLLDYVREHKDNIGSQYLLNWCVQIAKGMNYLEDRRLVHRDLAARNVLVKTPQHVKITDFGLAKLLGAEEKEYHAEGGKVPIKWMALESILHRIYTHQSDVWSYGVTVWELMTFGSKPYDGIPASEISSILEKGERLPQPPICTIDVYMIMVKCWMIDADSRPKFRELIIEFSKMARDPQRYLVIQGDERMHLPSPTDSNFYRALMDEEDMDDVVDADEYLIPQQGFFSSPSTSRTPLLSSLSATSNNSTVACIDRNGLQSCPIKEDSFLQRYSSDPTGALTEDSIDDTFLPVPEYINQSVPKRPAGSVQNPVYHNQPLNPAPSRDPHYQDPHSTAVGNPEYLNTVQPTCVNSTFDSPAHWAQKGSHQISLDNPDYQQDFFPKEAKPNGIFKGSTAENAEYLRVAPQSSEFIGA
Experimental: as §1, §2, §3, §4, §5, §6, §7, §8, §9, §10, §11, §12, §13, §14, §15, §16, §17, §18

[1] = Pharmacokinetic assay, oral administration; assay type: in vivo; settings: rat, male SD rats, p.o. 5 mg/kg, plasma, formulation differs per row
Experimental: Test 5 Pharmacokinetic Assay
Male SD rats, oral administration (intragastric administration), 3 in each group. Animals administered by gavage were fasted overnight before the experiment, and the fasting time was from at least 12 hours before administration to 4 hours after administration. The blood was collected using the orbital vein. Time of blood collection by oral administration: 15 min, 30 min, 1 h, 2 h, 4 h, 7 h, 24 h. The blood collection volume was 300 uL, and after anticoagulation with 2.0% EDTA, the blood was centrifuged at 4000 rpm for 5 min, and the blood plasma was taken for about 100 uL, and placed in −20° C. for examination. The plasma sample was analyzed using liquid chromatography tandem mass spectrometry (LC-MS/MS). Plasma concentration-time data for individual animals were analyzed using WinNonlin (V4.1, Pharsight) software with a non-compartmental model and the pharmacokinetic parameters of the test compounds were calculated.

A431 (WT) = experiment: A431 cells proliferation assay (CellTiter Glo); assay type: cell-based; settings: Homo sapiens, A-431; cell proliferation, 72 h
Experimental: Test 4 A431 Cells Proliferation Assay
DMEM and 10% FBS and 1% PS.
as §23, §20, §21, §22, §24
a) The test compound (20 mM stock solution) was diluted to 2 mM with 100% DMSO as starting concentration then 3-fold serial diluted with “9+0” concentrations. in a 96-well dilution plate (Cat # P-05525, Labcyte);
b) The above compound solution was diluted 1:40 times with culture medium to prepare a 5 fold working solution;
as §27
b) Cells were seeded to 96-well cell culture plate with density at 5000 cells/well;
a) Compounds prepared at step 2 were added to cell plate with 40 μL per well, the final concentrations were 10000, 3333,1111.1, 370.4, 123.5, 41.2, 13.7, 4.6, 1.5 and 0 nM, and the final concentration of DMSO was 0.5%. The blank control well was a culture medium (0.5% DMSO);
as §30
a) Remove the 96-well cell culture plate and add 60 μl of CTG reagent (CellTiter Glo kit, promega, Cat # G7573).
as §32
c) The Luminescence signal value was read using a PerkinElmer reader.
Experimental Data Analysis
as §34, §35
Y=Bottom+(Top-Bottom)/(1+10((LogIC50-X)×HillSlope));
as §37
The cells proliferation assay results are expressed with IC50, shown as Table 3.

Chain of EGFR L858R/T790M/C797S (P00533 25-1210 T790M/C797S/L858R): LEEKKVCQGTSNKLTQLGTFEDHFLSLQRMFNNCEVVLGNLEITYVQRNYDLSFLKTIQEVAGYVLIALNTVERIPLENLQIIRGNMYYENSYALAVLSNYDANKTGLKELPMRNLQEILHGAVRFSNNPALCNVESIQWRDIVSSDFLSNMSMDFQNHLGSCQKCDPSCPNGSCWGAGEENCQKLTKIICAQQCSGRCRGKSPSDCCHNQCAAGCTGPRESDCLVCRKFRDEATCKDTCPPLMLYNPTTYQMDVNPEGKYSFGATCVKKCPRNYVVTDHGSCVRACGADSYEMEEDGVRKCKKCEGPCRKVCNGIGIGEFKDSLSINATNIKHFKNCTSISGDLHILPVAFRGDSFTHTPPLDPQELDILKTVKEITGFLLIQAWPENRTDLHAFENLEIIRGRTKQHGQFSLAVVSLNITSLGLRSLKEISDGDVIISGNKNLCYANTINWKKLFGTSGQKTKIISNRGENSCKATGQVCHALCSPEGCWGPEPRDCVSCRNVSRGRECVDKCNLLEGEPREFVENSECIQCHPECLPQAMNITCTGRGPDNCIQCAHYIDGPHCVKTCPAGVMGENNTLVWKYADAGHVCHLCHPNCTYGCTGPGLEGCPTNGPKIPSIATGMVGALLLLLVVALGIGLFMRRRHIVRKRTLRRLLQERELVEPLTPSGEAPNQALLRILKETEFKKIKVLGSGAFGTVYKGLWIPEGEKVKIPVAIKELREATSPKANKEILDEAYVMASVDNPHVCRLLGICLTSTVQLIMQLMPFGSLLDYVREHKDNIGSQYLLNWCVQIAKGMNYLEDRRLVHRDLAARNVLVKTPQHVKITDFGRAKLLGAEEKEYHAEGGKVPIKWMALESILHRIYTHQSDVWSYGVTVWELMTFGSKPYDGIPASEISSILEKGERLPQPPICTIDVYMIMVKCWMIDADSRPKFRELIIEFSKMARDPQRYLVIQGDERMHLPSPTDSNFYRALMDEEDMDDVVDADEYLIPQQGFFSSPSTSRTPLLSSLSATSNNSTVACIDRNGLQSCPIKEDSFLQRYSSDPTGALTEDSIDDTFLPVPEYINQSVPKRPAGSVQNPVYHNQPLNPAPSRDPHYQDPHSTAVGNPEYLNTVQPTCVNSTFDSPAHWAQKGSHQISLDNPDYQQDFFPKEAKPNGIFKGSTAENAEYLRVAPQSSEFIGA

Row | Compound | IC50 (EGFR L858R/T790M/C797S; numeric values) [nM] | GI50 (Ba/F3-Del19/T790M/C797S; class symbols) [nM] | GI50 (Ba/F3-L858R/T790M/C797S; class symbols) [nM] | IC50 (EGFR WT) [nM] | IC50 (EGFR L858R/T790M/C797S; class symbols) [nM] | GI50 (Ba/F3-Del19/T790M/C797S; numeric values) [nM] | AUC(0-t) [1] [ng·h/mL] | Cmax [1] [ng/mL] | Tmax [1] [h] | half-life [1] [h] | GI50 (Ba/F3-L858R/T790M/C797S; numeric values) [nM] | IC50 (A431 (WT)) [nM]
1 | COc1cnc(Nc2ccc(N3CCC4(CC3)CC(N)C4)c(C)c2)nc1Nc1ccccc1P(C)(C)=O [Example 27, (2-((2-((4-(2-amino-7-azaspiro[3.5]nonan-7-yl)-3-methylphenyl)amino)-5-methoxypyrimidin-4-yl)amino)phenyl)dimethylphosphine oxide] | 4.4 | > 50 | > 50 | 127 | – | – | – | – | – | – | – | –
2 | CNC1CCC2(CC1)CN(c1ccc(Nc3ncc(Cl)c(Nc4ccccc4P(C)(C)=O)n3)cc1C)C2 [Example 2, (2-((5-chloro-2-((3-methyl-4-(7-(methylamino)-2-azaspiro[3.5]nonan-2-yl)phenyl)amino)pyrimidin-4-yl)amino)phenyl)dimethylphosphine oxide] | – | 10 to 50 | 10 to 50 | 66 | 2 to 10 | – | – | – | – | – | – | –
3 | Cc1cc(Nc2ncc(Cl)c(Nc3ccccc3P(C)(C)=O)n2)ccc1N1CCC2(CC1)CC(N(C)C)C2 [Example 15, (2-((5-chloro-2-((4-(2-(dimethylamino)-7-azaspiro[3.5]nonan-7-yl)-3-methylphenyl)amino)pyrimidin-4-yl)amino)phenyl)dimethylphosphine oxide] | 0.7 | – | – | – | – | 15.5 | 6940 | 575 | 6 | 4.38 | 17 | 27.6
4 | COc1cnc(Nc2ccc(N3CC4(CC(N)C4)C3)c(C)c2)nc1Nc1ccccc1P(C)(C)=O [Example 23, (2-((2-((4-(6-amino-2-azaspiro[3.3]heptan-2-yl)-3-methylphenyl)amino)-5-methoxypyrimidin-4-yl)amino)phenyl)dimethylphosphine oxide] | 11 | > 50 | > 50 | 167 | – | – | – | – | – | – | – | –
5 | CP(C)(=O)c1ccccc1Nc1nc(Nc2ccc(N3CCC4(CC3)CC(NC3CCCC3)C4)c(Cl)c2)ncc1Cl [Example 31, (2-((5-chloro-2-((3-chloro-4-(2-(cyclopentylamino)-7-azaspiro[3.5]nonan-7-yl)phenyl)amino)pyrimidin-4-yl)amino)phenyl)dimethylphosphine oxide] | 1.6 | 10 to 50 | 10 to 50 | 33 | – | – | – | – | – | – | – | –
6 | Cc1cc(Nc2ncc(C)c(Nc3ccccc3P(C)(C)=O)n2)ccc1N1CC2(CC(N)C2)C1 [Example 22, (2-((2-((4-(6-amino-2-azaspiro[3.3]heptan-2-yl)-3-methylphenyl)amino)-5-methylpyrimidin-4-yl)amino)phenyl)dimethylphosphine oxide] | – | > 50 | > 50 | 57 | 2 to 10 | – | – | – | – | – | – | –
7 | CP(C)(=O)c1ccccc1Nc1nc(Nc2ccc(N3CC4(CC(N)C4)C3)c(Cl)c2)ncc1Cl [Example 26, (2-((2-((4-(6-amino-2-azaspiro[3.3]heptan-2-yl)-3-chlorophenyl)amino)-5-chloropyrimidin-4-yl)amino)phenyl)dimethylphosphine oxide] | 1.7 | 10 to 50 | 10 to 50 | 37 | – | – | – | – | – | – | – | –
8 | Cc1cc(Nc2ncc(F)c(Nc3ccccc3P(C)(C)=O)n2)ccc1N1CC2(CC(N)C2)C1 [Example 24, (2-((2-((4-(6-amino-2-azaspiro[3.3]heptan-2-yl)-3-methylphenyl)amino)-5-fluoropyrimidin-4-yl)amino)phenyl)dimethylphosphine oxide] | 18 | > 50 | > 50 | 101 | – | – | – | – | – | – | – | –
9 | Cc1cc(Nc2ncc(Cl)c(Nc3ccccc3P(C)(C)=O)n2)ccc1N1CC2(CC(N)C2)C1 [Example 25, (2-((2-((4-(6-amino-2-azaspiro[3.3]heptan-2-yl)-3-methylphenyl)amino)-5-chloropyrimidin-4-yl)amino)phenyl)dimethylphosphine oxide] | 1.5 | – | – | 28 | – | 18 | – | – | – | – | 24.2 | –
10 | Cc1cc(Nc2ncc(C#N)c(Nc3ccccc3P(C)(C)=O)n2)ccc1N1CCC2(CC1)CC(N)C2 [Example 28, 2-((4-(2-amino-7-azaspiro[3.5]nonan-7-yl)-3-methylphenyl)amino)-4-((2-(dimethylphosphoryl)phenyl)amino)pyrimidine-5-carbonitrile] | – | > 50 | > 50 | > 300 | > 10 | – | – | – | – | – | – | –
11 | CP(C)(=O)c1ccccc1Nc1nc(Nc2ccc(N3CCC4(CC3)CC(NCCO)C4)c(Cl)c2)ncc1Cl [Example 32, (2-((5-chloro-2-((3-chloro-4-(2-((2-hydroxyethyl)amino)-7-azaspiro[3.5]nonan-7-yl)phenyl)amino)pyrimidin-4-yl)amino)phenyl)dimethylphosphine oxide] | 3.2 | > 50 | > 50 | 65 | – | – | – | – | – | – | – | –
